Reference: article PMC11208336 (Frontiers in Cellular and Infection Microbiology, 2024)

Target: T1, HmuY^Pe (Porphyromonas endodontalis, UniProt C3JC46)
T1 construct: gene POREN0001_0444
Assay: biochemical

T1 sequence (C3JC46 entry or part of it): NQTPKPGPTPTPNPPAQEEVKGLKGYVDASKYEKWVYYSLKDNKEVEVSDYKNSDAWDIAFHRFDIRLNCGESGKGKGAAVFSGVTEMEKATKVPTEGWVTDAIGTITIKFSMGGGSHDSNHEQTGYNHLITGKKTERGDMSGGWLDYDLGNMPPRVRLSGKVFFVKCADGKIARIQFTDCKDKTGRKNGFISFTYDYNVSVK

C=CC1=C(C)C2=Cc3c(C=C)c(C)c4[n]3[Fe][n]3c(c(C)c(CCC(=O)O)c3=CC3=NC(=C4)C(C)=C3CCC(=O)O)=CC1=N2 [Fe(II)heme]
Kd: 41 nM
